Measurements: ChEMBL document CHEMBL6120996, “Discovery and optimization of 1,2,4-triazole derivatives as novel ferroptosis inhibitors” (Eur J Med Chem, 2025)
The source made the active and inactive calls. The rule behind the calls is not given here.

Tests used:
786-0 [1] = assay: Inhibition of RSL3-induced ferroptosis in human 786-0 cells assessed as cell protection by assessing cell morphology at 1 uM incubated for 24 hrs; assay type: functional, cell-based
786-0 [2] = assay: Inhibition of RSL3-induced ferroptosis in human 786-0 cells assessed as cell viability incubated for 24 hrs by CellTiter-LumiTM assay; assay type: functional, cell-based; details: 786-0, 24 h
[3] = Antioxidant activity assessed as free radical scavenging activity at 50 uM incubated for 30 mins in dark by DPPH assay relative to control; assay type: functional
[4] = Suppression of autoxidation of liposomes egg ( unknown origin) phosphatidylcholine lipids as substrate at 0.1 to 2.5 uM incubated for 5 min by C11-BODIPY 581/591 dye based fluorescent assay; assay type: functional; details: dose 0.1-2.5 µM
[5] = Metabolic stability in human plasma assessed as half life at 1 uM by LC-MS/MS analysis; assay type: ADME, cell-free
HT-1080 = assay: Anti-ferroptotic activity in human GPX4 knockout HT-1080 cells assessed as cell viability at 1 uM incubated for 24 hrs by CellTiter-LumiTM plus luminescent cell viability assay; assay type: functional, cell-based
SK-HEP1 [6] = assay: Inhibition of RSL3 induced lipid-ROS accumulation in human SK-HEP1 cells at 1 uM incubated for 0.5 hrs by C11-BODIPY 581/591 staining coupled with flow cytometry analysis; assay type: functional, cell-based
786-0 [7] = assay: Inhibition of RSL3-induced ferroptosis in human 786-0 cells assessed as cell viability by assessing cell morphology incubated for 24 hrs by CellTiter-LumiTM plus luminescent cell viability assay; assay type: functional, cell-based; details: 786-0, 24 h
786-0 [8] = assay: Inhibition of RSL3 induced lipid-ROS accumulation in human 786-0 cells assessed as fast elimination at 1 uM measured after 0.25 to 2.5 hrs by C11-BODIPY 581/591 staining coupled with flow cytometry analysis; assay type: functional, cell-based; details: time 0.25-2.5 hrs
SK-HEP1 [9] = assay: Inhibition of RSL3 induced lipid-ROS accumulation in human SK-HEP1 cells at 1 uM incubated for 2.5 hrs by C11-BODIPY 581/591 staining coupled with flow cytometry analysis; assay type: functional, cell-based
786-0 [10] = assay: Inhibition of RSL3 induced lipid-ROS accumulation in human 786-0 cells incubated for 2.5 hrs by C11-BODIPY 581/591 staining coupled with flow cytometry analysis; assay type: functional, cell-based; details: dose 0.1-1 µM

Structure (SMILES)	EC50 (786-0 [2]) [nM]	Activity (786-0 [1])	further results
COc1cccc(C2N(c3ccccc3)N=C(C(C)=O)N2c2ccc(N(C)C)cc2)c1OCc1cc(Cl)cc(Cl)c1 (stereo not given)	3710	Active	
Cc1c(C)c2c(c(C)c1O)CCC(C)(C(=O)O)O2 (stereo not given)			Activity [3]: Active; Activity [4]: Dose-dependent-effect
COc1cccc(C2N(c3ccccc3)N=C(C(C)=O)N2c2ccc(N(C)C)cc2)c1OCc1ccc(C(F)(F)F)cc1 (stereo not given)	80	Active	
CC(=O)C1=NN(c2ccccc2)C(c2cc(C)c(OCc3ccc(Cl)cc3Cl)c(C)c2)N1c1ccc(N(C)C)cc1 (stereo not given)	150		
COc1cccc(C2N(c3ccccc3)N=C(C(C)=O)N2c2ccc(N(C)C)cc2)c1OCc1ccc(Cl)cc1Cl (stereo not given)	260	Active	
CC(C)[N+](C)(CCOC(=O)C1c2ccccc2Oc2ccccc21)C(C)C [PROPANTHELINE]			half-life at 1 µM [5]: 27.9 min
CC(=O)C1=NN(c2ccccc2)C(c2ccccc2OCc2ccc(Cl)cc2Cl)N1c1ccc(N(C)C)cc1 (stereo not given)	390	Active	
COc1cccc(C2N(c3ccccc3)N=C(C(C)=O)N2c2ccc(N(C)C)cc2)c1OCc1cccc2ccccc12 (stereo not given)	190	Active	
COc1ccc(COc2c(OC)cccc2C2N(c3ccccc3)N=C(C(C)=O)N2c2ccc(N(C)C)cc2)cc1OC (stereo not given)	300		
COc1cccc(C2N(c3ccccc3)N=C(C(C)=O)N2c2ccc(N(C)C)cc2)c1OCc1ccc(C#N)cc1 (stereo not given)	150	Active	
COc1cccc(C2N(c3ccccc3)N=C(C(C)=O)N2c2ccc(N(C)C)cc2)c1OCc1cccc(Cl)c1 (stereo not given)	190	Active	
COc1cccc(C2N(c3ccccc3)N=C(C(C)=O)N2c2ccc(N(C)C)cc2)c1OCc1ccc(C)cc1 (stereo not given)	130	Active	
COc1cccc(C2N(c3ccccc3)N=C(C(C)=O)N2c2ccc(N(C)C)cc2)c1OCc1c(F)cccc1F (stereo not given)	120	Active	
COc1cccc(COc2c(OC)cccc2C2N(c3ccccc3)N=C(C(C)=O)N2c2ccc(N(C)C)cc2)c1 (stereo not given)	150	Active	
COc1cccc(C2N(c3ccccc3)N=C(C(C)=O)N2c2ccc(N(C)C)cc2)c1OCc1cccc(Br)c1 (stereo not given)	120	Active	
COc1cccc(C2N(c3ccccc3)N=C(C(C)=O)N2c2ccc(N(C)C)cc2)c1OCc1ccc(C(C)(C)C)cc1 (stereo not given)	870		
COc1cccc(C2N(c3ccccc3)N=C(C(C)=O)N2c2ccc(N(C)C)cc2)c1OCc1c(C)cc(C)cc1C (stereo not given)	360		
CCOC(=O)c1ccc(NC2CCCCC2)c(N)c1			Activity (HT-1080): Active; inhibition (SK-HEP1 [6]): Active; EC50 (786-0 [7]): 67 nM; inhibition (786-0 [8]): Active; Activity [3]: Active; inhibition (SK-HEP1 [9]): Active; inhibition (786-0 [10]): Dose-dependent-effect
COc1cccc(C2N(c3ccccc3)N=C(C(C)=O)N2c2ccc(N(C)C)cc2)c1OCc1ccc(Br)cc1 (stereo not given)	100	Active	
CC(=O)C1=NN(c2ccccc2)C(c2cc(C)ccc2OCc2ccc(Cl)cc2Cl)N1c1ccc(N(C)C)cc1 (stereo not given)	680	Active	
Clc1cccc(CNC2=Nc3ccccc3NC23CCNCC3)c1			inhibition (SK-HEP1 [6]): Active; Activity [3]: Active; inhibition (SK-HEP1 [9]): Active

Further lines, with some results ahead:

EC50 (786-0 [2]) [nM]	Structure (SMILES)	Activity (786-0 [1])	further results
120	COc1cccc(C2N(c3ccccc3)N=C(C(C)=O)N2c2ccc(N(C)C)cc2)c1OCc1ccc(Cl)cc1 (stereo not given)	Active	
170	COc1cc(COc2c(OC)cccc2C2N(c3ccccc3)N=C(C(C)=O)N2c2ccc(N(C)C)cc2)cc(OC)c1OC (stereo not given)		
1230	CC(=O)C1=NN(c2ccccc2)C(c2cccc(C)c2OCc2ccc(Cl)cc2Cl)N1c1ccc(N(C)C)cc1 (stereo not given)	Active	
150	COc1cccc(C2N(c3ccccc3)N=C(C(C)=O)N2c2ccc(N(C)C)cc2)c1OCc1ccccc1Cl (stereo not given)	Active	
330	COc1cccc(C2N(c3ccccc3)N=C(C(C)=O)N2c2ccc(N(C)C)cc2)c1OCc1ccc(F)c(Cl)c1 (stereo not given)		
710	CC(=O)C1=NN(c2ccccc2)C(c2ccc(C)cc2OCc2ccc(Cl)cc2Cl)N1c1ccc(N(C)C)cc1 (stereo not given)	Active	
150	COc1cccc(C2N(c3ccccc3)N=C(C(C)=O)N2c2ccc(N(C)C)cc2)c1OCc1ccccc1C#N (stereo not given)	Active	
150	COc1cccc(C2N(c3ccccc3)N=C(C(C)=O)N2c2ccc(N(C)C)cc2)c1OCc1c(C)cccc1C (stereo not given)	Active	
140	COc1cccc(C2N(c3ccccc3)N=C(C(C)=O)N2c2ccc(N(C)C)cc2)c1OCc1ccc(F)cc1 (stereo not given)	Active	
170	COc1cc(COc2c(OC)cccc2C2N(c3ccccc3)N=C(C(C)=O)N2c2ccc(N(C)C)cc2)ccc1F (stereo not given)		
